The results in this text go back to patent US6500858B2, “Taxoid anti-tumor agents and pharmaceutical compositions thereof” (The Research Foundation of the state University of New York, priority 1994, dated 2002).

Data set [1] concerns A2780. The data set is described as follows: growth inhibition by cell counts, 72 h. The note with it: read-out: A2780 IC50. Type of data set: cell-based, human. As for the experimental part: (§1) Cells were plated in 6-well flat bottom plates (Falcon, Lincoln Park, N.J.) at a concentration of 10^5 cells ml in complete medium. After 24 h, the medium was replaced with media containing the test substances. Control cells were treated with vehicle alone. Cells were then washed twice and cultures maintained up to 72 h in complete medium (without removing the test substances). At this time point quadruplicate counts of triplicate cultures were performed. To calculate the growth inhibition effect, three independent experiments were performed for each test substance/cell line. The IC50 values were then calculated by fitting the concentration-effect curve data obtained in the three experiments with the sigmoid-Emax model using nonlinear regression, weighted by the reciprocal of the square of the predicted effect according to the method of Motulsky, H. J. and Ransnas, L. A., FASEB J. 1:365-74 (1987).

In data set [2] the test system is DU-145. The data set is described as follows: growth inhibition by cell counts, 72 h. The format is cell-based, human. Particulars: read-out: DU-145 IC50. The procedure:
as §1

The test system of data set [3] is MCF-7 ADRr. The data set is described as follows: growth inhibition by cell counts, 72 h. The format is cell-based, human. The note with it: read-out: MCF-7 ADRr IC50. The procedure: as §1
Data set [4] has as its system MCF-7 wt. The data set is described as follows: growth inhibition by cell counts, 72 h. The format is cell-based, human. The note with it: read-out: MCF-7 wt IC50. As for the experimental part:
as §1

The subject of data set [5] is NCI-H23. The data set is described as follows: growth inhibition by cell counts, 72 h. The format is cell-based, human. Particulars: read-out: NCI-H23 IC50. The procedure:
as §1

The test system of data set [6] is PC-3. The data set is described as follows: growth inhibition by cell counts, 72 h. The note with it: 72 h. The format is cell-based, human. As for the experimental part: as §1
Data set [7] concerns WiDr. The data set is described as follows: growth inhibition by cell counts, 72 h. Particulars: read-out: WiDr IC50. The format is cell-based, human. As for the experimental part: as §1
The test system of data set [8] is B16 melanoma. The data set can be described thus: intravenous administration to mice bearing B16 melanoma. Also on record: key to Responses (activity rating): A = active; HA = highly active. The format is in vivo, B6D2F1 female mice. As for the experimental part:
(§2) The efficacy of the test compounds on solid tumors in vivo was determined experimentally according to the following general experimental protocol:
(§3) The mice subjected to the experiment were subcutaneously grafted bilaterally with 30 to 60 mg of a tumor fragment on day zero. Mice bearing tumors were mixed before being subjected to the various treatments and controls. In the case of treatment of advanced tumors, tumors were allowed to develop to the desired size, and mice having insufficiently developed tumors were eliminated. The selected mice were distributed at random to undergo the treatments and controls. Mice not bearing tumors may also be subjected to the same treatments as the tumor-bearing mice in order to be able to dissociate the toxic effect from the specific effect on the tumor. Chemotherapy generally began from 3 to 22 days after grafting, depending on the type of tumor, and the mice were observed every day. The different mice groups were weighed 3 or 4 times a week until the maximum weight loss was attained (nadir), and the groups were then weighed at least once a week until the end of the trial.
(§4) The tumors were measured 2 or 3 times a week until the tumor reached approximately 2 grams, or until the animal died, if this occurred before the tumor reached 2 grams. The mice were autopsied when sacrificed.
(§5) The antitumor activity was determined in accordance with different parameters recorded such as dose (mg/kg), mode of administration, time of administration, cytotoxicity, toxicity and log10 cell kill.
SB-T-1213, SB-T-121303, SB-T-121304 and SB-T-1250 were evaluated in B6D2F1 female mice bearing B16 melanoma. The general experimental protocol was as described above. The compounds evaluated were administered intravenously (iv) on an intermittent schedule on days 3, 5, and 7 post tumor implantation. With the exception of SB-T-1250, solutions of the compounds for administration were prepared in 5% ethanol, 5% polysorbate 80, and 90% glucose 5% water.

Data set [9] relates to docetaxel-resistant melanoma, B16/TXT. The data set can be described thus: intravenous administration to B16/TXT melanoma-bearing mice. Type of data set: in vivo, B6D2F1 female mice. Also noted: key to Responses (activity rating): A = active; HA = highly active. As for the experimental part: as §2, §3, §4, §5
SB-T-1213, SB-T-121303, SB-T-121304 and SB-T-1250 were evaluated in B6D2F1 female mice bearing the docetaxel-resistant melanoma, B16/TXT. The general experimental protocol was as described above. The compounds evaluated were administered intravenously on an intermittent schedule on days 3, 5, and 7 post tumor implantation.

Data set [10] deals with A121 (ovarian carcinoma). The data set can be described thus: tumor cell growth inhibition (SRB, 72 h drug exposure). Type of data set: cell-based, human. Particulars: 72 h drug exposure. As for the experimental part: (§6) Lower numbers indicate higher potency. […] The data represent the mean values of at least three separate experiments. Lower numbers indicate greater activity.
(§7) Assessment of cell growth inhibition was determined according to the methods of Skehan et al., J. Nat. Cancer Inst. […] Briefly, cells were plated between 400 and 1200 cells/well in 96 well plates and incubated at 37° C. for 15-18 h prior to drug addition to allow attachment of cells. […] After a 72 h incubation, […] of ice-cold 50% TCA was added to each well and incubated for 1 h at 4° C. Plates were then washed 5 times with tap water to remove TCA, low-molecular-weight metabolites and serum proteins. Sulforhodamine B (SRB) (0.4%, […]) was added to each well. Following a 5 min incubation at room temperature, plates were rinsed 5 times with 0.1% acetic acid and air dried. […] Optical density was measured at 570 nm.

For data set [11], the system named is A549 (non-small cell lung carcinoma). Described as above. Type of data set: cell-based, human. The note with it: 72 h drug exposure, read-out: A549 (NSCLC) IC50. As for the experimental part:
as §6, §7

Data set [12] deals with HT-29 (colon carcinoma). Described as above. The format is cell-based, human. The note with it: 72 h drug exposure. As for the experimental part: as §6, §7
Data set [13] concerns MCF7 (mammary carcinoma). The description is as above. Type of data set: cell-based, human. Particulars: 72 h drug exposure. As for the experimental part:
as §6, §7

Data set [14] has as its system LCC6-WT: human breast carcinoma. The data set can be described thus: cytotoxicity assay of second generation taxoids. Type of data set: cell-based. Particulars: 72 h drug exposure, read-out: LCC6-WT IC50. The procedure:
A cytotoxicity assay of these new second generation taxoids was performed on human breast cancer cell lines, LCC6-WT and LCC-MDR, and selected taxoids were also assayed for their potency against MCF7 and MCF7-R (Skehan, P., et al., J. Nat. Cancer Inst. 1990, 82, 1107-1112).

Data set [15] relates to LCC6-MDR: MDR1 transduced line. The data set can be described thus: cytotoxicity assay of second generation taxoids. The format is cell-based, human. Particulars: for activity against drug-resistant vs drug-sensitive cell lines, in words: LCC6 and MCF7 pairs.
In data set [16] the test system is MCF7-R (mammary carcinoma cells 180-fold resistant to adriamycin). The data set is described as follows: tumor cell growth inhibition (SRB, 72 h drug exposure). Type of data set: cell-based, human. Particulars: 72 h drug exposure. The procedure: as §6, §7

Values joined by “and” are separate entries in the source; they are usually repeats but may differ in a detail not shown here. Equal values may be shown once. “Also recorded” adds a separate entry of the source. Read-outs that look alike come from different tables or passages of the source.

Take “3′-dephenyl-3′-(2,2-dimethyl-1-cyclopropyl)-10-acetyldocetaxel [SB-T-1250]”: the IC50 (usually the concentration needed to halve the response being measured) in data set [1] (72 h) was determined as 3.03 nM; in data set [2] (72 h), 0.6 nM; in data set [3] (72 h), 48 nM; in data set [4] (72 h), 2.3 nM; in [5] (72 h), 1.6 nM; in data set [6], 0.7 nM. Moreover, the IC50 in [7] stood at 0.5 nM. The “Responses (activity rating)” value in [8] (4.5 mg/kg/adm.) and in [9] (7.3 mg/kg/adm.) was “A” each time. For the same molecule, the T/C – broadly, the ratio of treated to control – is reported as 23% in data set [8] (4.5 mg/kg/adm., days 3, 5, 7); 152% in data set [9] (2.8 mg/kg/adm., days 3, 5, 7); 108% in [9] (4.5 mg/kg/adm., days 3, 5, 7); 41% in data set [9] (7.3 mg/kg/adm., days 3, 5, 7). Also, the log10 cell kill in data set [8] (4.5 mg/kg/adm., days 3, 5, 7) is on record as 1.2; in data set [9] (7.3 mg/kg/adm., days 3, 5, 7) it was 1.1. For the same molecule, the “% body weight loss at nadir” value in data set [8] (4.5 mg/kg/adm., days 3, 5, 7, 4.5 mg/kg) was 12.5% and 12.5 (3) %; in [9] (7.3 mg/kg/adm., days 3, 5, 7, 7.3 mg/kg), 16.7% and 16.7 (4) %. The “drug related deaths (DD)” value is “⅕” in [8] (7.3 mg/kg/adm., days 3, 5, 7); “⅗” in [8] (11.8 mg/kg/adm., days 3, 5, 7); 100% in data set [8] (19 mg/kg/adm., days 3, 5, 7). Further, the highest nontoxic dose came out at 4.5 mg/kg/adm in data set [8] (days 3, 5, 7) and 7.3 mg/kg/adm in [9] (days 3, 5, 7).
As for `CC(=O)O[C@@]12CO[C@@H]1C[C@H](O)[C@@]1(C)C(=O)[C@H](O)C3=C(C)[C@@H](OC(=O)[C@H](O)[C@@H](NC(=O)OC(C)(C)C)c4ccccc4)C[C@@](O)([C@@H](OC(=O)c4ccccc4)[C@H]21)C3(C)C` [Docetaxel, docetaxel, reference compound], the IC50 in data set [10] (Homo sapiens, A121) turned out to be 1.2 nM; in [11] (Homo sapiens, A549) it was 1 nM; in data set [12] (Homo sapiens, HT-29) it was 1.2 nM; in data set [13] (Homo sapiens, MCF7, Table 1, read-out: MCF7 (breast) IC50) it was 1 nM; in data set [13] (Homo sapiens, MCF7, Table 3, read-out: MCF7 IC50), 1 nM; in data set [14] (Homo sapiens), 1 nM. Besides, the IC50 in [15] (Homo sapiens, LCC6MDR, 72 h drug exposure, read-out: LCC6-MDR IC50) was found to be 120 nM; in data set [1] (Homo sapiens, A2780, 72 h), 4.95 nM; in data set [2] (Homo sapiens, DU-145, 72 h), 0.8 nM; in [3] (Homo sapiens, MCF7, 72 h), 970 nM; in [4] (Homo sapiens, MCF7, 72 h) it was 3.6 nM; in data set [5] (Homo sapiens, NCI-H23, 72 h), 3 nM. For the same molecule, the IC50 in [7] (Homo sapiens, WiDr) came out at 2.3 nM.
As to `CCC(=O)OC1C(=O)C2(C)C(O)CC3OCC3(OC(C)=O)C2C(OC(=O)c2cccc(OC)c2)C2(O)CC(OC(=O)C(O)C(C=C(C)C)NC(=O)OC(C)(C)C)C(C)=C1C2(C)C` (stereo not drawn) [Taxoid 7f, 3′-Dephenyl-3′-(2-methylprop-1-enyl)-2-debenzoyl-2-(3-methoxybenzoyl)-10-propanoyldocetaxel], the IC50 was 0.36 nM in [13] (Table 3, read-out: MCF7 IC50); 0.33 nM in data set [16] (Table 3); 1 nM in [14]. The “activity against drug-resistant vs drug-sensitive cell lines, in words” value in data set [15] was “slightly better activity against the drug-resistant cell lines; also recorded: virtually no difference in activity”.
For `CCC(=O)OC1C(=O)C2(C)C(O)CC3OCC3(OC(C)=O)C2C(OC(=O)c2cccc(N=[N+]=[N-])c2)C2(O)CC(OC(=O)C(O)C(C=C(C)C)NC(=O)OC(C)(C)C)C(C)=C1C2(C)C` (stereo not drawn) [Taxoid 7o, 3′-Dephenyl-3′-(2-methylprop-1-enyl)-2-debenzoyl-2-(3-azidobenzoyl)-10-propanoyldocetaxel], in that order: 0.9 nM, 1.1 nM, 0.9 nM and “virtually no difference in activity”.
Regarding `CC(=O)OC1C(=O)C2(C)C(O)CC3OCC3(OC(C)=O)C2C(OC(=O)c2ccccc2)C2(O)CC(OC(=O)C(O)C(NC(=O)OC(C)(C)C)C(F)(F)F)C(C)=C1C2(C)C` (stereo not drawn) [Taxoid Ig, 3′-Dephenyl-3 ′-trifluoromethyl-10-acetyldocetaxel], the IC50 in [10] stood at 0.37 nM; in [11], 0.25 nM; in [12], 0.4 nM; in data set [13] (Table 1, read-out: MCF7 (breast) IC50), 0.25 nM; in data set [16] (Table 1), 17 nM.
